For test [1], the system named is IL-1β release in THP-1 cells. Kind of test: IL-1β release assay. The note with it: Homo sapiens; PMA-differentiated THP-1 cells, LPS + nigericin, cleaved IL-1β by JESS. It counts as cell-based. The protocol:
Approximately 1.5 million THP-1 cells were plated in each well of a 6-well TC plate and incubated with 40 nM PMA in RPMI (10% FBS, 1% Penstrep) for 24 hours. The media was then removed and cells were rested in RPMI (10% FBS, 1% Penstrep) for 24 hours after which time the media was removed and cells were pre-treated for 2 hours with various concentrations of compounds of interest (typically serial 3-fold dilution in RPMI+5% FBS, concentrations ranging from 1 μM to 0.5 nM) in RPMI (5% FBS). The media was again removed and cells were incubated with 250 ng/mL LPS and compounds of interest (concentrations as above) in RMPI (5% FBS) for 2 hours. The media was removed for a last time and cells were incubated with 20 μM nigericin and compounds of interest (concentrations as above) in Opti-MEM for 30 minutes. Cell media was then collected and the amount of cleaved IL-1β was determined using a JESS instrument (Protein Simple) and standard protocols. Cleaved Il-1β antibody was obtained from Cell Signaling (catalogue #83186S) and was used at 1:20 dilution in antibody diluent 2. Protein Simple 1× anti-Rabbit HRP secondary antibody was used along with Protein Simple luminol and peroxide for chemiluminescent detection. Primary antibody incubation time was increased from 30 minutes to 60 minutes.
(§1) Representative compounds were tested for inhibitory activity against NEK7 and IL-1β release according to the procedures described above.

Test [2] addresses T1, full-length recombinant human NEK7 (Homo sapiens, UniProt Q8TDX7).
T1 construct: full-length recombinant human NEK7; GST (N); purchased SignalChem N09-10G; host or cells: Sf9 insect cells (baculovirus)
The test is described as follows: NEK7 enzymatic assay. It is filed as biochemical. The note with it: casein substrate, [32P]-ATP, radiometric P81 filter assay. As for the experimental part:
Casein substrate (from bovine milk, hydrolyzed and partially dephosphorylated mixture of α, β, and κ caseins, obtained from Sigma Aldrich, catalogue #C4765, diluted in distilled water to a final concentration of 1 mg/mL, assay concentration 20 μM) and full-length recombinant human NEK7 (expressed by baculovirus in Sf9 insect cells using a N-terminal GST tag, obtained from SignalChem, catalogue #N09-10G, […], assay concentration 70 nM) were mixed in assay buffer (20 mM Hepes pH 7.5, 10 mM MgCl2, 1 mM EGTA, 0.02% Brij35, 0.02 mg/mL BSA, 0.1 mM […], 2 mM DTT, 1% DMSO). Compounds of interest (in DMSO, serial 3-fold dilution from 10 μM to 0.5 nM) or control (1% DMSO) were dispensed into the kinase reaction mixture by Acoustic technology (Echo550; nanoliter range). After incubation at room temperature for 20 minutes, the kinase reaction was initiated by addition of [^32P]-ATP (Specific activity 10 μUCi/μl) and the mixture was incubated at room temperature for 2 hours. The reaction was then stopped by spotting the reaction mixture on strips of phosphocellulose P81 paper. Following washing, the radioactivity of the P81 paper was measured and kinase activity data were expressed as the percent remaining kinase activity in test samples compared to vehicle (dimethyl sulfoxide) reactions. IC50 values and curve fits were obtained using Prism (GraphPad Software).
as §1

T1 sequence (Q8TDX7 whole entry): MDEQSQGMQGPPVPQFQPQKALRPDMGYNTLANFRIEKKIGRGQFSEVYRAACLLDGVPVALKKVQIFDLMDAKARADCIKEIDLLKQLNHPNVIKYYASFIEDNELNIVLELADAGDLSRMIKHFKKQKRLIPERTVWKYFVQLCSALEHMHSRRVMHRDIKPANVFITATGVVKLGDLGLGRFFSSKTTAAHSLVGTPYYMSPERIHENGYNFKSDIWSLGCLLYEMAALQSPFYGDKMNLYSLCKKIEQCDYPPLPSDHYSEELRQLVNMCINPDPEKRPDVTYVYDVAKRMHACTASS

As to `CN1CCN(Cc2ccc(NC(=O)Nc3ccc(Oc4ccnc5[nH]cc(Cl)c45)cc3F)cc2C(F)(F)F)CC1` [Example I-1, 1-(4-((3-chloro-1H-pyrrolo[2,3-b]pyridin-4-yl)oxy)-2-fluorophenyl)-3-(4-((4-methylpiperazin-1-yl)methyl)-3-(trifluoromethyl)phenyl)urea], the IC50 in test [1] is < 50 nM.

Regarding `CN1CCN(Cc2ccc(NC(=O)Nc3ccc(Oc4ccnc5[nH]cc(C6CC6)c45)cc3F)cc2C(F)(F)F)CC1` [Example I-7, 1-(4-((3-cyclopropyl-1H-pyrrolo[2,3-b]pyridin-4-yl)oxy)-2-fluorophenyl)-3-(4-((4-methylpiperazin-1-yl)methyl)-3-(trifluoromethyl)phenyl)urea], the IC50 in test [1] lay in the range of 50 to 250 nM. Regarding `Cc1[nH]c2nccc(Oc3ccc(NC(=O)Nc4ccc(CN5CCN(C)CC5)c(C(F)(F)F)c4)c(F)c3)c2c1Cl` [Example I-11, 1-(4-((3-chloro-2-methyl-1H-pyrrolo[2,3-b]pyridin-4-yl)oxy)-2-fluorophenyl)-3-(4-((4-methylpiperazin-1-yl)methyl)-3-(trifluoromethyl)phenyl)urea], in test [1], the IC50 is < 50 nM. Regarding `CN1CCN(Cc2ccc(NC(=O)Nc3ccc(Oc4ccnc5[nH]cc(Cl)c45)cn3)cc2C(F)(F)F)CC1` [Example I-24, 1-(5-((3-chloro-1H-pyrrolo[2,3-b]pyridin-4-yl)oxy)pyridin-2-yl)-3-(4-((4-methylpiperazin-1-yl)methyl)-3-(trifluoromethyl)phenyl)urea], the values for the IC50 in test [2] and in test [1] were < 200 nM and < 50 nM, respectively. The corresponding values for `Cc1c[nH]c2nccc(Oc3ccc(NC(=O)Nc4ccc(CN5CCN(C)CC5)c(C(F)(F)F)c4)c(F)c3)c12` [Example I-36, 1-(2-fluoro-4-((3-methyl-1H-pyrrolo[2,3-b]pyridin-4-yl)oxy)phenyl)-3-(4-((4-methylpiperazin-1-yl)methyl)-3-(trifluoromethyl)phenyl)urea] are 200 to 500 nM and 50 to 250 nM.

On to `CCN1CCN(Cc2ccc(NC(=O)Nc3ccc(Oc4ccnc5[nH]cc(Cl)c45)cc3F)cc2C(F)(F)F)CC1` [Example I-37, 1-(4-((3-chloro-1H-pyrrolo[2,3-b]pyridin-4-yl)oxy)-2-fluorophenyl)-3-(4-((4-ethylpiperazin-1-yl)methyl)-3-(trifluoromethyl)phenyl)urea], for which the IC50 in test [1] is < 50 nM. On to `CN1CCC(Oc2ccc(NC(=O)Nc3ccc(Oc4ccnc5[nH]cc(Cl)c45)cc3F)cc2C(F)(F)F)CC1` [Example I-39, 1-(4-((3-chloro-1H-pyrrolo[2,3-b]pyridin-4-yl)oxy)-2-fluorophenyl)-3-(4-((1-methylpiperidin-4-yl)oxy)-3-(trifluoromethyl)phenyl)urea], for which the values for the 50% inhibitory concentration (IC50) in test [2] and in test [1] were 200 to 500 nM and 50 to 250 nM, respectively. On to `CN1CCC(=Cc2ccc(NC(=O)Nc3ccc(Oc4ccnc5[nH]cc(Cl)c45)cc3F)cc2C(F)(F)F)CC1` [Example I-40, 1-(4-((3-chloro-1H-pyrrolo[2,3-b]pyridin-4-yl)oxy)-2-fluorophenyl)-3-(4-((1-methylpiperidin-4-ylidene)methyl)-3-(trifluoromethyl)phenyl)urea], for which the IC50 was 500 to 2000 nM in test [2] and < 50 nM in test [1]. The corresponding values for `CN1CCC(Oc2ncc(NC(=O)Nc3ccc(Oc4ccnc5[nH]cc(Cl)c45)cc3F)cc2C(F)(F)F)CC1` [Example I-58, 1-(4-((3-chloro-1H-pyrrolo[2,3-b]pyridin-4-yl)oxy)-2-fluorophenyl)-3-(6-((1-methylpiperidin-4-yl)oxy)-5-(trifluoromethyl)pyridin-3-yl)urea] are 200 to 500 nM and 50 to 250 nM. In the same order, the values of `CC(=O)N1CCC(Oc2ccc(NC(=O)Nc3ccc(Oc4ccnc5[nH]cc(Cl)c45)cc3F)cc2C(F)(F)F)CC1` [Example I-59, 1-(4-((1-acetylpiperidin-4-yl)oxy)-3-(trifluoromethyl)phenyl)-3-(4-((3-chloro-1H-pyrrolo[2,3-b]pyridin-4-yl)oxy)-2-fluorophenyl)urea] are > 2000 nM and 250 to 1000 nM.
